Our source for the pEC50 values is the supplement of paper PMC6411743.

Compound in one assay: Nc1nc2c(ncn2[C@@H]2O[C@H](COP(=O)(O)OP(=O)(O)OP(=O)(O)O)[C@@H](O)[C@H]2O)c(=O)[nH]1 [guanosine triphosphate]
Briefly: pEC50 of GTP-induced change in protein thermal stability (2D-TPP). The gist of the method: (§1)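 pEC50 was obtained by fitting dose-response curves for each replicate over pairs of adjacent temperatures, and hits were assigned using permutation-based false discovery rate control. The input came from Jurkat crude lysate treated with five concentrations including vehicle (10 min, room temperature), heated at 12 temperatures from 42 to 63.9 °C for 3 min, then given NP40 and benzonase (60 min, 4 °C). After ultracentrifugation, soluble protein was quantified by TMT LC-MS/MS as median-normalised fold changes versus vehicle per temperature, across three independent experiments.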

Compound in another assay: Nc1ncnc2c1ncn2[C@@H]1O[C@H](COP(=O)(O)OP(=O)(O)OP(=O)(O)O)[C@@H](O)[C@H]1O [adenosine triphosphate]
Description: pEC50 of ATP-induced change in protein thermal stability (2D-TPP). The gist of the method:
as §1
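Throughout, for pEC50 of ATP-induced change in protein thermal stability (2D-TPP): lysate dosed with Na-ATP at 0 0.005 0.05 0.5 and 2 mM.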

Chain of UniProt P52564 (P52564 whole entry): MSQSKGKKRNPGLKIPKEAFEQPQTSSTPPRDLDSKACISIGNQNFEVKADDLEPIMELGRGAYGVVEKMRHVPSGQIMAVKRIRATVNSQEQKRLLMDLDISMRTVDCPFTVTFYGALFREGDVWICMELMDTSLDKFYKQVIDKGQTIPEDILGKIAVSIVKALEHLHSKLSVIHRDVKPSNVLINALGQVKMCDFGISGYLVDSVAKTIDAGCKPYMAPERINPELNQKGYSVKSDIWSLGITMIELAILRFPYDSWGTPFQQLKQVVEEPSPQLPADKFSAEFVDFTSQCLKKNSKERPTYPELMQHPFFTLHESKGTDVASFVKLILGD
Chain of UniProt Q9Y5L0 (Q9Y5L0 whole entry): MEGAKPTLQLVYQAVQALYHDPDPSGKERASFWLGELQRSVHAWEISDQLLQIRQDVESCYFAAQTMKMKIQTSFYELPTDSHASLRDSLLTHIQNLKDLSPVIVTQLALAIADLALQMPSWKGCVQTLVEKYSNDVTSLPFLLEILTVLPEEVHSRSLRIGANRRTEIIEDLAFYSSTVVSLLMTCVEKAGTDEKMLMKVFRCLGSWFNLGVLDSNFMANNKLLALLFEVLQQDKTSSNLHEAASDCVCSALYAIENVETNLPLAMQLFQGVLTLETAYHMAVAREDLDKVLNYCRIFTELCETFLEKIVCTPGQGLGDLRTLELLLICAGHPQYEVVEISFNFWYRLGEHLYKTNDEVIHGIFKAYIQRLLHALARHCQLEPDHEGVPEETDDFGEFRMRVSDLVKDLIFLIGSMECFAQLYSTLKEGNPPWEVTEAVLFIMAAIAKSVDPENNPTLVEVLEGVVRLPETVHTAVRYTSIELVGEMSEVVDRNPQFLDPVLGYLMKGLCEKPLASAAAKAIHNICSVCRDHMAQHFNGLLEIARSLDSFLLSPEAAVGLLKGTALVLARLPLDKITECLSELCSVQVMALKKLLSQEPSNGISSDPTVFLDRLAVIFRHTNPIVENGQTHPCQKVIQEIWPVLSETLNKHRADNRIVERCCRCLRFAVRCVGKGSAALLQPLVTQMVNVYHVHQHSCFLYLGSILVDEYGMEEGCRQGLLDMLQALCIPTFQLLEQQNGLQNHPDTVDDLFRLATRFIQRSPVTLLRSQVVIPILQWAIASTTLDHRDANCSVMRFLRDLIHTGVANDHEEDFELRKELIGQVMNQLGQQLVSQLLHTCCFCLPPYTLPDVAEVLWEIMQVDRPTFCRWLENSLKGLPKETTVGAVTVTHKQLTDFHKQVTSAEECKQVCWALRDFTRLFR
Chain of UniProt Q8WUD1 (Q8WUD1 whole entry): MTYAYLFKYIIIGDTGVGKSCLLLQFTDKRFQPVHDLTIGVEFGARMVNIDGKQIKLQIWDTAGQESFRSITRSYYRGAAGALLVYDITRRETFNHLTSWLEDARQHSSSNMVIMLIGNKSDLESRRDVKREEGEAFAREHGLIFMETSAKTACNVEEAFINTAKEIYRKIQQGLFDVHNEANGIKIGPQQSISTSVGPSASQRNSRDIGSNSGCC
Chain of UniProt Q3KQV9 (Q3KQV9 whole entry): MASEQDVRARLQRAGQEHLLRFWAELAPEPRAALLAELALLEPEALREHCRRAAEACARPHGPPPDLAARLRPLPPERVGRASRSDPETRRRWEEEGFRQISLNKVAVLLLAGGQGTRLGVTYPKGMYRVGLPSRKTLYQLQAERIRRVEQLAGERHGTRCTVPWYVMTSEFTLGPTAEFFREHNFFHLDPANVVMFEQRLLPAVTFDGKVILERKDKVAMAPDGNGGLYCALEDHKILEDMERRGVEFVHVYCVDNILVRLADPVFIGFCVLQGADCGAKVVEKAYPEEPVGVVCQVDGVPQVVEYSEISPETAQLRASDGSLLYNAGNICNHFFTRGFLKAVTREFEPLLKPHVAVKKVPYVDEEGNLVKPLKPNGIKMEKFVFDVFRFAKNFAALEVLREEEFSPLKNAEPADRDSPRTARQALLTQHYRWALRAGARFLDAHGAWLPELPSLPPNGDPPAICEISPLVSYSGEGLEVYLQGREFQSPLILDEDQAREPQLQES
Chain of UniProt P62820 (P62820 whole entry): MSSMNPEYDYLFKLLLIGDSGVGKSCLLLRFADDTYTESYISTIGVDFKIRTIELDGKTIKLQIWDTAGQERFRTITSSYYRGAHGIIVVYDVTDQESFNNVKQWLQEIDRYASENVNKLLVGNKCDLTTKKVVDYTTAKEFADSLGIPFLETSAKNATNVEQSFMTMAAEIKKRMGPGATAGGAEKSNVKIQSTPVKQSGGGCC
Chain of UniProt O00442 (O00442 whole entry): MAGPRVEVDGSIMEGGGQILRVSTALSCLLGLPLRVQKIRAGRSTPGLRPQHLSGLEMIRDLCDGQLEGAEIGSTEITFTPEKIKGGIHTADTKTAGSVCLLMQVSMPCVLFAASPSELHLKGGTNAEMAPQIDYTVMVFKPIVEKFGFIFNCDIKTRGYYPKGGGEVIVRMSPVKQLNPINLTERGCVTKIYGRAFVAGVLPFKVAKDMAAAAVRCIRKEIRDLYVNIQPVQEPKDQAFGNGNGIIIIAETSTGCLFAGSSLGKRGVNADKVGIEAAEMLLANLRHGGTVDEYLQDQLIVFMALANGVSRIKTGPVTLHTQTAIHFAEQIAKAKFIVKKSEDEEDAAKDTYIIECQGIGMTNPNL
Chain of UniProt P53597 (P53597 whole entry): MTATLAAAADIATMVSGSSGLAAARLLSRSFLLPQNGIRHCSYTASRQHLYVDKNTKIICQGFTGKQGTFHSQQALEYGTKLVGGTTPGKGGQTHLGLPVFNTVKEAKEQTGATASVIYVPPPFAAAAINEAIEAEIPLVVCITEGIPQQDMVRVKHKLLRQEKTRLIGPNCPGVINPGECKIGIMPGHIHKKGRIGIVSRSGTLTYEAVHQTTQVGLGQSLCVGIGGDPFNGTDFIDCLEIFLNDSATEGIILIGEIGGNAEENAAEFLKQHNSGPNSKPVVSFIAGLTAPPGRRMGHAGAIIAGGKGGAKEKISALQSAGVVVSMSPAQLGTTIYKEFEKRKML
Chain of UniProt P22314 (P22314 whole entry): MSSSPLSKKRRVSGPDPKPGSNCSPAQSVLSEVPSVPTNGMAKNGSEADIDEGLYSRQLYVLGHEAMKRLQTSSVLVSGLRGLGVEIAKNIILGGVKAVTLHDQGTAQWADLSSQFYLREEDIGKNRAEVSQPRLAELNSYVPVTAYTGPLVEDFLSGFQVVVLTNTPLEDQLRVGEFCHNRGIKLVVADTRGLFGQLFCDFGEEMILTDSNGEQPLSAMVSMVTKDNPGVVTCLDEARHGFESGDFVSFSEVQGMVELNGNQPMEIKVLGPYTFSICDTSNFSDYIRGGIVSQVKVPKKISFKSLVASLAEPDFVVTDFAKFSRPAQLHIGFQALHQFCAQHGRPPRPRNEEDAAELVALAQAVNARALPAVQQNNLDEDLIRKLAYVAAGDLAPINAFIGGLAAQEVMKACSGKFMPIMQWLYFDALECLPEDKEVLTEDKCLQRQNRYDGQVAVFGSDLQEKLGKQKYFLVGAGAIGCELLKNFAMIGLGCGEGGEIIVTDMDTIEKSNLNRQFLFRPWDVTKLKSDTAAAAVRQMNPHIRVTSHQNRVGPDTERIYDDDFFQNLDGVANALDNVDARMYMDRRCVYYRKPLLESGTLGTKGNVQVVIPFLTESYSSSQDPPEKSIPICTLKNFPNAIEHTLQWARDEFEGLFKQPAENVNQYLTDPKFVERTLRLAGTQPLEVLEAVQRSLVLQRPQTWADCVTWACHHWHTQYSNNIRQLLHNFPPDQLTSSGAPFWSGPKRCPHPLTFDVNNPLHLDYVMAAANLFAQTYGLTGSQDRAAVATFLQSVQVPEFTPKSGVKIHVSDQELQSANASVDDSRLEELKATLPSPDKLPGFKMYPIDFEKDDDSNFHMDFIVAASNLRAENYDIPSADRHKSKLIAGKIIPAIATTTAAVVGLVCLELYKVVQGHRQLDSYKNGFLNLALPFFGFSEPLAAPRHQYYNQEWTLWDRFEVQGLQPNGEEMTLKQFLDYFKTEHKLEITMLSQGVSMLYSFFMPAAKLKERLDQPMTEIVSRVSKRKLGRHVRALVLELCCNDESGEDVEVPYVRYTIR
Chain of UniProt Q9NXG2 (Q9NXG2 whole entry): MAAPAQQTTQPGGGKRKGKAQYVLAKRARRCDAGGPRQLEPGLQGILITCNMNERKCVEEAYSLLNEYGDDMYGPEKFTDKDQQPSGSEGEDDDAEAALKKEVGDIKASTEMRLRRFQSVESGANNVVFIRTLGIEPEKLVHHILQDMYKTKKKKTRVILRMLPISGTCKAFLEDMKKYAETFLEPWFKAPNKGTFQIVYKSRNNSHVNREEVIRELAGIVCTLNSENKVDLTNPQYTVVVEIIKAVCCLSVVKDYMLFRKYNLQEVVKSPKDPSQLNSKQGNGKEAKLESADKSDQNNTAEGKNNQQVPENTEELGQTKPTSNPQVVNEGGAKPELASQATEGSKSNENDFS
Chain of UniProt P61224 (P61224 whole entry): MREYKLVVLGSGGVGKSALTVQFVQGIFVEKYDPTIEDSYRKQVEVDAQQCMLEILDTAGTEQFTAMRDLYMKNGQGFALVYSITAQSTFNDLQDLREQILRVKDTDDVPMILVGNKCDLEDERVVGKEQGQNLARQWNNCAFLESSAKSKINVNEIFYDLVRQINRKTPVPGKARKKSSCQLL
Chain of UniProt Q92930 (Q92930 whole entry): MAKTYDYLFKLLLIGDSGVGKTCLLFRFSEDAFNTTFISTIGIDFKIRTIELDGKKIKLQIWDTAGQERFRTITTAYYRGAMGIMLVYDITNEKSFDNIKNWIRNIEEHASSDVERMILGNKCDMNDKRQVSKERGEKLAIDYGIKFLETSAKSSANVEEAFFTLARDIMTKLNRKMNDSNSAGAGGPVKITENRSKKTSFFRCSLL
Chain of UniProt P61026 (P61026 whole entry): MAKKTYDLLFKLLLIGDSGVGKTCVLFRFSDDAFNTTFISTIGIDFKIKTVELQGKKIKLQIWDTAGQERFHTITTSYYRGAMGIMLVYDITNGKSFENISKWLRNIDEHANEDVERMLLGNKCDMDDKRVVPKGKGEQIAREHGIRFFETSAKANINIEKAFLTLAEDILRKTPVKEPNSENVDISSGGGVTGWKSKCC

Consider “PEX1 (effect direction: stabilized) (UniProt O43933)”, for which the pEC50 (commonly the EC50 on a negative log10 scale, so that one unit is a factor of ten) with guanosine triphosphate was found to be 3.72; with adenosine triphosphate it was 3.98.

On to “PFKL (effect direction: stabilized) (UniProt P17858)”, for which the values for the negative-log EC50 (pEC50) with guanosine triphosphate and in the assay with adenosine triphosphate were 3.54 and 3.4, respectively.

On to “PRKAR1A (effect direction: stabilized) (UniProt P10644)”, for which the values for the pEC50 with guanosine triphosphate and with adenosine triphosphate were 3.72 and 3.85, respectively.

As for “PRKCB (effect direction: stabilized) (UniProt P05771)”, the pEC50 with guanosine triphosphate turned out to be 3.86; with adenosine triphosphate, 3.44.

On to “PRKCQ (effect direction: stabilized) (UniProt Q04759)”, for which the pEC50 in the assay with guanosine triphosphate was 4.08; in the assay with adenosine triphosphate, 4.19.

Turning to “RAB2A (effect direction: stabilized) (UniProt P61019)”, the pEC50 with guanosine triphosphate was found to be 4.39; in the assay with adenosine triphosphate it was 3.56.

In the case of “RAB2B (effect direction: stabilized) (UniProt Q8WUD1)”, the results for the pEC50 with guanosine triphosphate and with adenosine triphosphate were 4.52 and 3.45, respectively.

In the case of “RAB4A (effect direction: stabilized) (UniProt P20338)”, the pEC50 in the assay with guanosine triphosphate was 4.52; in the assay with adenosine triphosphate, 3.45.

With “RAB4B (effect direction: stabilized) (UniProt P61018)”, the pEC50 was 5 with guanosine triphosphate and 3.79 in the assay with adenosine triphosphate.

Turning to “RAB5C (effect direction: stabilized) (UniProt P51148)”, the negative logarithm of the EC50 (pEC50) was found to be 4.49 with guanosine triphosphate and 4.22 with adenosine triphosphate.

Turning to “RAB8A (effect direction: stabilized) (UniProt P61006)”, the pEC50 in the assay with guanosine triphosphate stood at 4.51; with adenosine triphosphate it was 4.15.

For “RAB8B (effect direction: stabilized) (UniProt Q92930)”, the values for the pEC50 with guanosine triphosphate and in the assay with adenosine triphosphate were 4.27 and 3.93, respectively.

As for “RAB21 (effect direction: stabilized) (UniProt Q9UL25)”, the pEC50 came out at 4.53 with guanosine triphosphate and 3.75 with adenosine triphosphate.

As to “RAB33A (effect direction: stabilized) (UniProt Q14088)”, the pEC50 in the assay with guanosine triphosphate amounted to 3.89; with adenosine triphosphate, 3.39.

Regarding “RAB39B (effect direction: stabilized) (UniProt Q96DA2)”, the pEC50 stood at 4.03 with guanosine triphosphate and 3.52 in the assay with adenosine triphosphate.

Regarding “RAB43 (effect direction: stabilized) (UniProt Q86YS6)”, the pEC50 with guanosine triphosphate worked out at 4.47; with adenosine triphosphate, 3.55.

“RABL3 (effect direction: stabilized) (UniProt Q5HYI8)”: the pEC50 was 3.95 with guanosine triphosphate and 3.4 in the assay with adenosine triphosphate.

Consider “RAD50 (effect direction: stabilized) (UniProt Q92878)”, for which the pEC50 in the assay with guanosine triphosphate was found to be 3.49; with adenosine triphosphate it was 3.37.

In the case of “RHEB (effect direction: stabilized) (UniProt Q15382)”, the pEC50 with guanosine triphosphate came to 4.45; with adenosine triphosphate, 3.28.

On to “RHOA (effect direction: stabilized) (UniProt P61586)”, for which the pEC50 with guanosine triphosphate was 4.45; in the assay with adenosine triphosphate, 4.15.

Take “RUVBL1 (effect direction: stabilized) (UniProt Q9Y265)”: the figures for the pEC50 in the assay with guanosine triphosphate and with adenosine triphosphate were 3.67 and 4.34, respectively.

In the case of “RUVBL2 (effect direction: stabilized) (UniProt Q9Y230)”, the pEC50 was 3.77 with guanosine triphosphate and 4.33 in the assay with adenosine triphosphate.

“SET (effect direction: stabilized) (UniProt Q01105)”: the values for the pEC50 with guanosine triphosphate and in the assay with adenosine triphosphate were 3.71 and 3.06, respectively.

“SUCLA2 (effect direction: stabilized) (UniProt Q9P2R7)”: the pEC50 in the assay with guanosine triphosphate worked out at 3.78; in the assay with adenosine triphosphate, 3.2.

Consider “SUCLG1 (effect direction: stabilized) (UniProt P53597)”, for which the pEC50 with guanosine triphosphate was 3.83; with adenosine triphosphate it was 3.48.

For the target “SUCLG2 (effect direction: stabilized) (UniProt Q96I99)”, the pEC50 worked out at 3.5 in the assay with guanosine triphosphate and 3.43 in the assay with adenosine triphosphate.

Take “TBCD (effect direction: stabilized) (UniProt Q9BTW9)”: the pEC50 with guanosine triphosphate was determined as 3.7; in the assay with adenosine triphosphate it was 2.92.

“TBRG4 (effect direction: stabilized) (UniProt Q969Z0)”: the negative-log EC50 (pEC50) in the assay with guanosine triphosphate amounted to 3.48; with adenosine triphosphate, 3.26.

Take “THUMPD1 (effect direction: stabilized) (UniProt Q9NXG2)”: the pEC50 turned out to be 3.86 with guanosine triphosphate and 3.08 with adenosine triphosphate.

In the case of “TNPO1 (effect direction: stabilized) (UniProt Q92973)”, the pEC50 turned out to be 3.68 with guanosine triphosphate and 2.89 with adenosine triphosphate.

For the target “TNPO2 (effect direction: stabilized) (UniProt O14787)”, the pEC50 with guanosine triphosphate was below 3.3; with adenosine triphosphate, below 2.7.

In the case of “TNPO3 (effect direction: stabilized) (UniProt Q9Y5L0)”, the pEC50 with guanosine triphosphate was 3.76; in the assay with adenosine triphosphate, 3.08.

For the target “TP53RK (effect direction: stabilized) (UniProt Q96S44)”, the figures for the pEC50 in the assay with guanosine triphosphate and with adenosine triphosphate were 3.58 and 3.46, respectively.

With “TUBG1 (effect direction: stabilized) (UniProt P23258)”, the pEC50 worked out at 4.06 in the assay with guanosine triphosphate and 3.17 in the assay with adenosine triphosphate.

Regarding “UAP1L1 (effect direction: stabilized) (UniProt Q3KQV9)”, the pEC50 with guanosine triphosphate was 3.38; in the assay with adenosine triphosphate, 3.13.

“UBA1 (effect direction: stabilized) (UniProt P22314)”: the pEC50 with guanosine triphosphate worked out at 3.79; with adenosine triphosphate it was 4.18.

“UCK2 (effect direction: stabilized) (UniProt Q9BZX2)”: the results for the pEC50 with guanosine triphosphate and with adenosine triphosphate were 3.9 and 3.28, respectively.

“UniProt O00442 (effect direction: stabilized)”: the pEC50 in the assay with guanosine triphosphate and with adenosine triphosphate was 4.08 throughout.

For “UniProt O43776 (effect direction: stabilized)”, the figures for the pEC50 with guanosine triphosphate and with adenosine triphosphate were 4.05 and 4.13, respectively.

For “UniProt O75323 (effect direction: stabilized)”, the figures for the pEC50 in the assay with guanosine triphosphate and in the assay with adenosine triphosphate were 3.66 and 3.94, respectively.

As to “UniProt P07437 (effect direction: stabilized)”, the pEC50 with guanosine triphosphate turned out to be 4.05; with adenosine triphosphate, 3.35.

With “UniProt P08240 (effect direction: stabilized)”, the pEC50 stood at 3.81 in the assay with guanosine triphosphate and 4.01 with adenosine triphosphate.

Take “UniProt P17252 (effect direction: stabilized)”: the values for the pEC50 with guanosine triphosphate and in the assay with adenosine triphosphate were 4.06 and 4.25, respectively.

For “UniProt P17612 (effect direction: stabilized)”, the pEC50 with guanosine triphosphate came out at 3.72; with adenosine triphosphate it was 3.82.

As to “UniProt P19784 (effect direction: stabilized)”, the results for the pEC50 with guanosine triphosphate and with adenosine triphosphate were 3.92 and 4.12, respectively.

In the case of “UniProt P36542 (effect direction: stabilized)”, the pEC50 is 4.12 with guanosine triphosphate and 4.25 with adenosine triphosphate.

Consider “UniProt P45985 (effect direction: stabilized)”, for which the pEC50 in the assay with guanosine triphosphate was determined as 3.78; in the assay with adenosine triphosphate, 3.79.

Take “UniProt P48047 (effect direction: stabilized)”: the pEC50 is 3.9 in the assay with guanosine triphosphate and 3.53 with adenosine triphosphate.

“UniProt P52564 (effect direction: stabilized)”: the pEC50 with guanosine triphosphate worked out at 3.9; with adenosine triphosphate, 4.

Consider “UniProt P59998 (effect direction: stabilized)”, for which the pEC50 turned out to be 4.03 with guanosine triphosphate and 3.9 with adenosine triphosphate.

On to “UniProt P61026 (effect direction: stabilized)”, for which the pEC50 came out at 4.35 with guanosine triphosphate and 3.83 with adenosine triphosphate.

Turning to “UniProt P61086 (effect direction: stabilized)”, the negative logarithm of the EC50 (pEC50) with guanosine triphosphate came to 3.76; in the assay with adenosine triphosphate, 4.05.

Take “UniProt P61106 (effect direction: stabilized)”: the figures for the pEC50 with guanosine triphosphate and with adenosine triphosphate were 4.33 and 3.66, respectively.

Turning to “UniProt P61160 (effect direction: stabilized)”, the pEC50 with guanosine triphosphate was determined as 3.99; with adenosine triphosphate, 4.25.

Consider “UniProt P61224 (effect direction: stabilized)”, for which the pEC50 with guanosine triphosphate was 4.25; with adenosine triphosphate, 3.9.

On to “UniProt P61225 (effect direction: stabilized)”, for which the pEC50 is 4.05 with guanosine triphosphate and 3.48 with adenosine triphosphate.

As to “UniProt P62070 (effect direction: stabilized)”, the pEC50 with guanosine triphosphate was found to be 4.08; in the assay with adenosine triphosphate, 3.42.

In the case of “UniProt P62333 (effect direction: stabilized)”, the pEC50 with guanosine triphosphate was 3.75; in the assay with adenosine triphosphate it was 4.38.

“UniProt P62820 (effect direction: stabilized)”: the values for the pEC50 with guanosine triphosphate and with adenosine triphosphate were 4.31 and 3.74, respectively.

Consider “UniProt P68363 (effect direction: stabilized)”, for which the pEC50 with guanosine triphosphate amounted to 3.88; with adenosine triphosphate it was 2.98.
